This is an account of results in patent US7091202B2, “4-arylspirocycloalkyl-2-aminopyrimidine carboxamide KCNQ potassium channel modulators” (Bristol-Myers Squibb Company, priority 2004, dated 2006).

Test [1] has as its target mKCNQ2 (Mus musculus, UniProt Q9Z351). Put plainly: KCNQ patch-clamp: two-electrode voltage clamp on Xenopus laevis oocytes injected with mKCNQ2 cRNA. The format is cell-based. The following applies: for Percent TEA blockage: percent inhibition relative to 5 mM TEA blockade at a membrane voltage of −40 mV, mKCNQ2 in oocytes. The method, then: KCNQ Patch-clamp. Frog oocytes were surgically harvested from mature Xenopus laevis that had been anesthetized with 0.15% 3-aminobenzoic acid ethyl ester (tricaine). Only late stage V and VI oocytes were selected for cRNA injection, and the overlying follicle cell layers were enzymatically removed. Each oocyte was injected with approximately 60 ng of the mKCNQ2 cRNA. Following injection, oocytes were maintained at 17° C. in ND96 medium consisting of (in mM): NaCl, 90; KCl, 1.0; CaCl2, 1.0; MgCl2, 1.0; HEPES, 5.0; (pH 7.5) and supplemented with heat-inactivated horse serum (5%) and penicillin/streptomycin (5%).
Two-electrode voltage clamp techniques were used to record membrane currents; recording commenced 3–7 days following cRNA injection (Gribkoff, V. K., et al., Mol. Pharmacol. 1996, 50(1), 206–217). For recording and compound application, oocytes were placed in a recording chamber and incubated in Modified Barth's Solution (MBS) consisting of (in mM): NaCl, 88; NaHCO3, 2.4; KCI, 1.0; HEPES, 10; MgSO4, 0.82; Ca(NO3)2, 0.33; CaCl2, 0.41; (pH 7.5). Voltage-clamp protocols consisted of a series of 4 second duration depolarizing voltage steps from a holding potential of −90 mV to a maximal potential of +40 mV in 10 mV intervals. A family of outward currents was generated under control conditions for comparison with currents elicited in the presence of an experimental compound. Control or drug solutions were continually introduced into the recording chamber using a gravity-flow system with an in-line electronic valve array. A minimum of 5 oocytes was used for each drug concentration; drug concentrations ranged from 0.001 μM to 10 μM. During a single experiment, an oocyte was exposed to as many as three drug concentrations sequentially administered for 5 minutes each. All experiments ended with a 5 minute application of TEA (5 mM), a non-selective, but effective blocker of KCNQ channels. Typically, 5 mM TEA produced a maximal blockade of outward current when measured at the −40 mV membrane voltage (94.6+/−0.5% inhibition, n=112). In this manner, all drug effects could be presented as a percentage of TEA blockade, controlling for the variable levels of channel expression from oocyte to oocyte. Table 1 discloses data for representative examples. Data are expressed as percent inhibition relative to TEA blockade at a membrane voltage of −40 mV: A>50% TEA blockage at 100 nM, B>50% TEA blockage at 1 μM, C<50% TEA blockage at 1.0 μM.
A general note: The patch-clamp technique gives a direct electrical read-out from membranes.

The target in test [2] is T1, hQ23 (HEK-293 cell line stably transfected with one of the members of the KCNQ family) (Homo sapiens, UniProt O43525+O43526).
T1 construct: expressed in transfected cells; host or cells: HEK-293, stably transfected
T1 sequence (O43526 whole entry): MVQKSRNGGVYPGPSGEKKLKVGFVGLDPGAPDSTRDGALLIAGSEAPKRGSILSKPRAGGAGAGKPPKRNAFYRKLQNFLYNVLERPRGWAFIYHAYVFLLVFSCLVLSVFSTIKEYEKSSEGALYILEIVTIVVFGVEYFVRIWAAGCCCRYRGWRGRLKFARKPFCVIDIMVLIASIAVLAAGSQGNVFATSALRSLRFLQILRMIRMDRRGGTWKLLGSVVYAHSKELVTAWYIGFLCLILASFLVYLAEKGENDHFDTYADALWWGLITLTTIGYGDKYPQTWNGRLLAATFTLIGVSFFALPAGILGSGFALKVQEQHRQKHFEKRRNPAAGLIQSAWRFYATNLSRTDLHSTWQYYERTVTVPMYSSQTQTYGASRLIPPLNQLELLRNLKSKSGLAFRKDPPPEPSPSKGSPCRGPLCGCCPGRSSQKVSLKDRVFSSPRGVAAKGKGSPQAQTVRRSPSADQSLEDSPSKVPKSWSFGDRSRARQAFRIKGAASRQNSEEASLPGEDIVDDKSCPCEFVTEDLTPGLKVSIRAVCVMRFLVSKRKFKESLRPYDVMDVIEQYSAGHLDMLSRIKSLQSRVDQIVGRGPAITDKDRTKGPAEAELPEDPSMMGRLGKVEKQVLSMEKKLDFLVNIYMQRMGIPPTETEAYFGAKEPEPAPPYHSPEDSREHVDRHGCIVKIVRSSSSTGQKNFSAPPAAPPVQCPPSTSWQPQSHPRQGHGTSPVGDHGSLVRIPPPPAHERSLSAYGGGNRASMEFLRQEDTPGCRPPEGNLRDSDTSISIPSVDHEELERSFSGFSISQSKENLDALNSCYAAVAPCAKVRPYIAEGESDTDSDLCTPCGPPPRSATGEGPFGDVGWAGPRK
T1 sequence (O43525 whole entry): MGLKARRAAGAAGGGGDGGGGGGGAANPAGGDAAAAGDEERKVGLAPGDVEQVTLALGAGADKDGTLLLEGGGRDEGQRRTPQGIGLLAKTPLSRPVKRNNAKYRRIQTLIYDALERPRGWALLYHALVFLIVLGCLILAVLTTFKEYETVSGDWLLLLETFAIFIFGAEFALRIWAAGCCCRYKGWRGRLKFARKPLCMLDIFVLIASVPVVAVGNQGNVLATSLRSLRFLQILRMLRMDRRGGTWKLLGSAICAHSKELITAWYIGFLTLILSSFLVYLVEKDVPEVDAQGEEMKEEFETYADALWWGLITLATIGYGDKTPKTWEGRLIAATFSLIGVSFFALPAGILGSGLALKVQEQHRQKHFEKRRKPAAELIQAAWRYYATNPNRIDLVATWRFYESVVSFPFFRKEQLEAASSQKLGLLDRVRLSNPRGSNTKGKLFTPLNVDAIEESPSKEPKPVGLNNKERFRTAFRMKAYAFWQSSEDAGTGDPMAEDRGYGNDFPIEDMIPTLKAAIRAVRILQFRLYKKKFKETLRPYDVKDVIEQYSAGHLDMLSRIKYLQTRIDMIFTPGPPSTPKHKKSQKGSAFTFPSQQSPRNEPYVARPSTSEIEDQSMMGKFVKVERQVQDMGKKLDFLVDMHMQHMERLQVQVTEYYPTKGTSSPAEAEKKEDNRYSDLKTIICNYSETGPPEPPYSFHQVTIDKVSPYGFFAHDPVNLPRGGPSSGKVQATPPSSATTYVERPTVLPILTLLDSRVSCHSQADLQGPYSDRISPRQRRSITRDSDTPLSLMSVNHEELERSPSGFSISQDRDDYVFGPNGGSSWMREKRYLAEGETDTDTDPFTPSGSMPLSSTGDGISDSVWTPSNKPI
Put plainly: Thallium flux assay for KCNQ channel blockers (FLIPR, BTC dye). The format is cell-based. In short, it runs like this: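 FLIPR thallium flux readout (BTC dye, 2 μM AM ester) in stably transfected KCNQ HEK-293 cells, chloride-free HEPES buffer pH 7.3, Tl2SO4 stimulus. IC50s were fitted with a single-site logistic equation across 10 points at 1:3 dilutions, defined as 50% of positive-control block; minimal active concentration meant signal ≥4 SD over DMSO controls.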

The mark [3] stands for this setting: Table 2, thallium flux, HEK-293.

Chain of mKCNQ2 (Q9Z351 whole entry): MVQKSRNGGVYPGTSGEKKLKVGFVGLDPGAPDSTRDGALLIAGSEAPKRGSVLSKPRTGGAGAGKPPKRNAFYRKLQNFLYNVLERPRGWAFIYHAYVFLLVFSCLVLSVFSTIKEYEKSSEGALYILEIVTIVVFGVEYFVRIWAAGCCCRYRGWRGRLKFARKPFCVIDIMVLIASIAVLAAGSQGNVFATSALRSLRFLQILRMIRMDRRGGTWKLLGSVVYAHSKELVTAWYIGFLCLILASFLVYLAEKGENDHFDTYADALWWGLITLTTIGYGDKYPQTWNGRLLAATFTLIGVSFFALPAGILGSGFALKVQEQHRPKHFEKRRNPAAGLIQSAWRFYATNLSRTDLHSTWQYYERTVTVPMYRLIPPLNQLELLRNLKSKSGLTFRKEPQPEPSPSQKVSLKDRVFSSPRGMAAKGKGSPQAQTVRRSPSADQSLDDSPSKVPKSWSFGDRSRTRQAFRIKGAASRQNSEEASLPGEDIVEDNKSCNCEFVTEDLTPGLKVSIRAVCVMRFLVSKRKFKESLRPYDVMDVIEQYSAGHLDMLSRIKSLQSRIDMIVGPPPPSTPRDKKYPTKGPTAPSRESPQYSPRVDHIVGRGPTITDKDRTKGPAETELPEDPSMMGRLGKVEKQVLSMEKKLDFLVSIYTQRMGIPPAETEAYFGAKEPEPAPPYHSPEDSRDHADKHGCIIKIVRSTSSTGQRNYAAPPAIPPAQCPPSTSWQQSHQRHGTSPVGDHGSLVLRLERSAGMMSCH

Take `O=C(NCc1ccc2c(c1)OCO2)c1cnc(N2CCCC2)nc1C1(c2ccccc2)CCCCC1` [Example 299, N-(1,3-benzodioxol-5-ylmethyl)-4-[1-phenylcyclohexyl]-2-(1-pyrrolidinyl)-5-pyrimidinecarboxamide]: the “Percent TEA blockage” value in test [1] is “B (B > 50% TEA blockage at 1 μM)”.

For the molecule `CC[N+](CC)(CC)CC` [TEA, reference compound], the “maximal blockade of outward current (% inhibition)” value in test [1] (5 mM TEA, measured at −40 mV membrane voltage, n=112) is reported as 94.6+/−0.5%. The term EC50 denotes the concentration that produces a half-maximal response. Read a high EC50 as weaker potency. In the case of `CC1CCN(c2ncc(C(=O)NCc3ccc(Cl)cc3Cl)c(C3(c4ccc(F)cc4)CCCC3)n2)CC1` [Example 263, 5-pyrimidinecarboxamide, N-[(2,4-dichlorophenyl)methyl]-4-[1-(4-fluorophenyl)cyclopentyl]-2-(4-methyl-1-piperidinyl)-], the “Percent TEA blockage” value in test [1] is “A (A > 50% TEA blockage at 100 nM)”. This molecule also showed an EC50 in test [2] (hQ23 cells, thallium flux assay) of 17 nM. As to `CC1CCN(c2ncc(C(=O)NCc3ccc(Cl)cc3Cl)c(C3(c4ccc(Cl)cc4)CCCC3)n2)CC1` [Example 181, 5-pyrimidinecarboxamide, 4-[1-(4-chlorophenyl)cyclopentyl]-N-[(2,4-dichlorophenyl)methyl]-2-(4-methyl-1-piperidinyl)-], in test [1], the “Percent TEA blockage” value is given as “A (A > 50% TEA blockage at 100 nM)”. In test [2] (hQ23 cells, thallium flux), this molecule had an EC50 of 10 nM. With `CC1CCN(c2ncc(C(=O)NC(C)c3cccnc3)c(C3(c4ccccc4)CCCC3)n2)CC1` (stereo not drawn) [Example 16, 2-(4-Methyl-piperidin-1-yl)-4-(1-phenyl-cyclopentyl)-pyrimidine-5-carboxylic acid (1-pyridin-3-yl-ethyl)-amide], the “Percent TEA blockage” value in test [1] was “A (A > 50% TEA blockage at 100 nM)”. Take `CC1CCC(Nc2ncc(C(=O)NCc3cccc4ccccc34)c(C3(c4ccccc4)CCCC3)n2)CC1` (stereo not drawn) [Example 102, 5-pyrimidinecarboxamide, 2-[(4-methylcyclohexyl)amino]-N-(1-naphthalenylmethyl)-4-(1-phenylcyclopentyl)-]: in test [2] (hQ23 cells, thallium flux), the midpoint of the response, the EC50, lay at 194 nM. The same measure, in the same setting: to `CC(NC(=O)c1cnc(N2CCN(C)CC2)nc1C1(c2ccc(Cl)cc2)CCCC1)c1cccc2ccccc12` (stereo not drawn) [Example 159, 5-pyrimidinecarboxamide, 4-[1-(4-chlorophenyl)cyclopentyl]-2-(4-methyl-1-piperazinyl)-N-[1-(1-naphthalenyl)ethyl]-] belongs 643 nM.

For `CC1CCN(c2ncc(C(=O)NCc3ccc(C(F)(F)F)cc3)c(C3(c4ccccc4)CCCC3)n2)CC1` [Example 138, 5-pyrimidinecarboxamide, 2-(4-methyl-1-piperidinyl)-4-(1-phenylcyclopentyl)-N-[[4-(trifluoromethyl)phenyl]methyl]-], the “Percent TEA blockage” value in test [1] is recorded as “B (B > 50% TEA blockage at 1 μM)”. Besides, the EC50 in test [2] (hQ23 cells, thallium flux) came out at 10 nM. The molecule “5-pyrimidinecarboxamide, 4-[1-(4-fluorophenyl)cyclopentyl]-N,N-bis(1-methylethyl)-2-(3-methyl-1-piperidinyl)- [Example 224]” displayed an EC50 in test [2] (hQ23 cells, thallium flux) of 39 nM. The same measure, in the same setting: to `CC1CCN(c2ncc(C(=O)N3CCc4ccccc4C3)c(C3(c4ccccc4)CCCC3)n2)CC1` [Example 74, isoquinoline, 1,2,3,4-tetrahydro-2-[[2-(4-methyl-1-piperidinyl)-4-(1-phenylcyclopentyl)-5-pyrimidinyl]carbonyl]-] belongs 191 nM. Turning to `CC1CCC(Nc2ncc(C(=O)NCc3ccc(F)cc3F)c(C3(c4ccccc4)CC3)n2)CC1` (stereo not drawn) [Example 42, 5-pyrimidinecarboxamide, N-[(2,4-difluorophenyl)methyl]-2-[(4-methylcyclohexyl)amino]-4-(1-phenylcyclopropyl)-], in test [2] (setting [3]), the EC50 was found to be 413 nM. Molecule `CC1CCC(Nc2ncc(C(=O)NCc3ccc(F)cc3F)c(C3(c4ccc(Cl)cc4)CCCC3)n2)CC1` (stereo not drawn) [Example 186, 5-pyrimidinecarboxamide, 4-[1-(4-chlorophenyl)cyclopentyl]-N-[(2,4-difluorophenyl)methyl]-2-[(4-methylcyclohexyl)amino]-] showed an EC50 in test [2] (hQ23 cells, thallium flux) of 128 nM.

For the molecule `CC1CCC(Nc2ncc(C(=O)NCc3ccc4c(c3)OCO4)c(C3(c4ccccc4)CCCC3)n2)CC1` (stereo not drawn) [Example 90, 5-pyrimidinecarboxamide, N-(1,3-benzodioxol-5-ylmethyl)-2-[(4-methylcyclohexyl)amino]-4-(1-phenylcyclopentyl)-], the EC50 in test [2] (hQ23 cells, thallium flux) worked out at 220 nM. The same measure, in the same setting: with `CC1CCCN(c2ncc(C(=O)NC(C)c3ccc(F)cc3)c(C3(c4ccc(Cl)cc4)CCCC3)n2)C1` (stereo not drawn) [Example 198, 5-pyrimidinecarboxamide, 4-[1-(4-chlorophenyl)cyclopentyl]-N-[1-(4-fluorophenyl)ethyl]-2-(3-methyl-1-piperidinyl)-] the figure was 124 nM.

In test [2] (setting [3]), `CC1CCCN(c2ncc(C(=O)N3CCc4ccccc4C3)c(C3(c4ccccc4)CC3)n2)C1` (stereo not drawn) [Example 25, isoquinoline, 1,2,3,4-tetrahydro-2-[[2-(3-methyl-1-piperidinyl)-4-(1-phenylcyclopropyl)-5-pyrimidinyl]carbonyl]-] had an EC50 of 945 nM. The same measure, in the same setting: to `CC1CCN(c2ncc(C(=O)NCc3cc(F)cc(C(F)(F)F)c3)c(C3(c4ccccc4)CC3)n2)CC1` [Example 48, 5-pyrimidinecarboxamide, N-[[3-fluoro-5-(trifluoromethyl)phenyl]methyl]-2-(4-methyl-1-piperidinyl)-4-(1-phenylcyclopropyl)-] belongs 297 nM. Take `CC1CCC(Nc2ncc(C(=O)NCc3ccc(C(F)(F)F)cc3)c(C3(c4ccccc4)CCCC3)n2)CC1` (stereo not drawn) [Example 137, 5-pyrimidinecarboxamide, 2-[(4-methylcyclohexyl)amino]-4-(1-phenylcyclopentyl)-N-[[4-(trifluoromethyl)phenyl]methyl]-]: the EC50 in test [2] (hQ23 cells, thallium flux) worked out at 964 nM.

In turn, `CC1CCC(Nc2ncc(C(=O)N[C@H](C)c3cccc4ccccc34)c(C3(c4ccccc4)CC3)n2)CC1` (stereo partly drawn) [Example 33, 5-pyrimidinecarboxamide, 2-[(4-methylcyclohexyl)amino]-N-[(1R)-1-(1-naphthalenyl)ethyl]-4-(1-phenylcyclopropyl)-] displayed an EC50 in test [2] (setting [3]) of 293 nM. In turn, `CC1CCN(c2ncc(C(=O)NCc3cccc4ccccc34)c(C3(c4ccc(Cl)cc4)CCCC3)n2)CC1` [Example 170, 5-pyrimidinecarboxamide, 4-[1-(4-chlorophenyl)cyclopentyl]-2-(4-methyl-1-piperidinyl)-N-(1-naphthalenylmethyl)-] had a concentration giving a half-maximal response (EC50) in test [2] (hQ23 cells, thallium flux) of 10 nM. Still for that read-out and setting: with `CN1CCC(N(C)c2ncc(C(=O)NCc3ccc(C(F)(F)F)cc3)c(C3(c4ccc(Cl)cc4)CCCC3)n2)CC1` [Example 204, 5-pyrimidinecarboxamide, 4-[1-(4-chlorophenyl)cyclopentyl]-2-[methyl(1-methyl-4-piperidinyl)amino]-N-[[4-(trifluoromethyl)phenyl]methyl]-] the figure was 400 nM; with `CC1CCN(c2ncc(C(=O)N3CCCC(C)C3)c(C3(c4ccc(F)cc4)CCCC3)n2)CC1` (stereo not drawn) [Example 218, piperidine, 1-[[4-[1-(4-fluorophenyl)cyclopentyl]-2-(4-methyl-1-piperidinyl)-5-pyrimidinyl]carbonyl]-3-methyl-], 866 nM. Still for that read-out and setting: to `CC1CCN(c2ncc(C(=O)NCc3ccc(Cl)c(Cl)c3)c(C3(c4ccccc4)CCCC3)n2)CC1` [Example 108, 5-pyrimidinecarboxamide, N-[(3,4-dichlorophenyl)methyl]-2-(4-methyl-1-piperidinyl)-4-(1-phenylcyclopentyl)-] belongs 37 nM.

For `CC1CCC(Nc2ncc(C(=O)NCc3ccc(F)cc3F)c(C3(c4ccccc4)CCCC3)n2)CC1` (stereo not drawn) [Example 116, 5-pyrimidinecarboxamide, N-[(2,4-difluorophenyl)methyl]-2-[(4-methylcyclohexyl)amino]-4-(1-phenylcyclopentyl)-], in test [2] (hQ23 cells, thallium flux), the midpoint of the response, the EC50, lay at 85 nM. Same read-out and setting: to `CC1CCCN(c2ncc(C(=O)NCc3cc(F)cc(C(F)(F)F)c3)c(C3(c4ccccc4)CCCC3)n2)C1` (stereo not drawn) [Example 126, 5-pyrimidinecarboxamide, N-[[3-fluoro-5-(trifluoromethyl)phenyl]methyl]-2-(3-methyl-1-piperidinyl)-4-(1-phenylcyclopentyl)-] belongs 319 nM.
